# Target: PD-1/PD-L1 (Homo sapiens (Human), UniProt Q9NZQ7)
# Experiment: PD-1/PD-L1 biochemical protein-protein interaction assay (ALPHA)
# Details: 0.3 nM His tagged PD-L1, 2.5 nM biotinylated Fc-PD-1, 60 minutes at 25° C., read-out: IC50 PD-L1-PD1
# Chain of PD-1/PD-L1 (Q9NZQ7 19-238): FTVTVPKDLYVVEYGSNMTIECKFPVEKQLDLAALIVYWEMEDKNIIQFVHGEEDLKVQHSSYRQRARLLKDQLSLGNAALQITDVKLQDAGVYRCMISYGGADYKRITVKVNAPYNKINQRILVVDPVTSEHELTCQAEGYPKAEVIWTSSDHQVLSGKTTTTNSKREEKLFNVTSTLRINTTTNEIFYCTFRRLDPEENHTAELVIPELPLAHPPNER
row,Compound,IC50 [nM]
1,COc1nc(-c2cccc(-c3cccc(-c4cnc(CN5CC[C@@H](C(=O)O)C5)c(OC)n4)c3Cl)c2Cl)ccc1CNC[C@@H]1CCC(=O)N1 [compound 514],0.09
2,COc1nc(-c2cccc(-c3cccc(-c4cnc(CN5CCC(c6cc[nH]n6)C5)c(OC)n4)c3Cl)c2Cl)cnc1CNC[C@@H]1CCC(=O)N1 (stereo partly shown) [compound 515],0.342
3,COc1nc(-c2cccc(-c3cccc(-c4cnc(CN5CC[C@H](O)[C@@H]5C)c(OC)n4)c3Cl)c2Cl)cnc1CNC[C@@H]1CCC(=O)N1 [compound 516],0.064
4,COc1nc(-c2cccc(-c3cccc(-c4cnc(CN5CC[C@H](C(N)=O)C5)c(OC)n4)c3Cl)c2Cl)cnc1CNC[C@@H]1CCC(=O)N1 [compound 517],0.106
5,COc1nc(-c2cccc(-c3cccc(-c4cnc(CNCCc5cnccn5)c(OC)n4)c3Cl)c2Cl)cnc1CNCCc1cnccn1 [compound 518],0.144
6,COc1nc(-c2cccc(-c3cccc(-c4cnc(CN5C[C@@H](O)[C@@H](O)C5)c(OC)n4)c3Cl)c2Cl)cnc1CN1C[C@@H](O)[C@@H](O)C1 [compound 519],0.277
7,COc1nc(-c2cccc(-c3cccc(-c4cnc(CNC[C@@H]5CCC(=O)N5)c(OC)n4)c3Cl)c2Cl)cnc1CNCCc1cncnc1 [compound 520],0.072
8,COc1nc(-c2cccc(-c3cccc(-c4cnc(CNC[C@@H]5CCC(=O)N5)c(OC)n4)c3Cl)c2Cl)cnc1CNCCc1cnccn1 [compound 521],0.071
9,COc1nc(-c2cccc(-c3cccc(-c4cnc(CN(CCO)CCO)c(OC)n4)c3Cl)c2Cl)cnc1CNC[C@@H]1CCC(=O)N1 [compound 522],0.064
10,COc1nc(-c2cccc(-c3cccc(-c4cnc(CN5CCC(O)(CO)C5)c(OC)n4)c3Cl)c2Cl)cnc1CNC[C@@H]1CCC(=O)N1 (stereo partly shown) [compound 523],0.181
11,COc1nc(-c2cccc(-c3cccc(-c4cnc(CN5C[C@@H](O)[C@@H](O)C5)c(OC)n4)c3Cl)c2Cl)cnc1CNC[C@@H]1CCC(=O)N1 [compound 524],0.115
12,COc1nc(-c2cccc(-c3cccc(-c4cnc(CN5CCC(N6CCNC6=O)C5)c(OC)n4)c3Cl)c2Cl)cnc1CN1CCC(N2CCNC2=O)C1 (stereo not shown) [compound 525],0.105
13,COc1nc(-c2cccc(-c3cccc(-c4cnc(CN5C[C@H](O)[C@@H](O)C5)c(OC)n4)c3Cl)c2Cl)cnc1CN1C[C@H](O)[C@@H](O)C1 [compound 526],0.168
14,COc1nc(-c2cccc(-c3cccc(-c4cnc(CN5CC(C(N)=O)C5)c(OC)n4)c3Cl)c2Cl)cnc1CN1CC(C(N)=O)C1 [compound 527],0.089
15,COc1nc(-c2cccc(-c3cccc(-c4cnc(CN5CCC(N6CCNC6=O)C5)c(OC)n4)c3Cl)c2Cl)cnc1CNC[C@@H]1CCC(=O)N1 (stereo partly shown) [compound 528],0.064
16,COc1nc(-c2cccc(-c3cccc(-c4cnc(CN5C[C@H](O)[C@@H](O)C5)c(OC)n4)c3Cl)c2Cl)cnc1CNC[C@@H]1CCC(=O)N1 [compound 529],0.091
17,COC[C@@H]1C[C@H](OC)CN1Cc1ncc(-c2cccc(-c3cccc(-c4cnc(CNC[C@@H]5CCC(=O)N5)c(OC)n4)c3Cl)c2Cl)nc1OC [compound 530],0.212
18,COc1nc(-c2cccc(-c3cccc(-c4cnc(CN5CCC(C(=O)N(C)C)C5)c(OC)n4)c3Cl)c2Cl)cnc1CN1CCC(C(=O)N(C)C)C1 (stereo not shown) [compound 531],0.225
19,COc1nc(-c2cccc(-c3cccc(-c4cnc(CN5CC[C@@H](C(N)=O)C5)c(OC)n4)c3Cl)c2Cl)cnc1CN1CC[C@@H](C(N)=O)C1 [compound 532],0.273
20,COc1nc(-c2cccc(-c3cccc(-c4cnc(CN5C[C@@H](CO)[C@H](C)C5)c(OC)n4)c3Cl)c2Cl)cnc1CN1C[C@@H](CO)[C@H](C)C1 [compound 533],0.096
21,COc1nc(-c2cccc(-c3cccc(-c4cnc(CN5CCC(C(=O)N(C)C)C5)c(OC)n4)c3Cl)c2Cl)cnc1CNC[C@@H]1CCC(=O)N1 (stereo partly shown) [compound 534],0.299
22,COc1nc(-c2cccc(-c3cccc(-c4cnc(CN5CC[C@@H](C(N)=O)C5)c(OC)n4)c3Cl)c2Cl)cnc1CNC[C@@H]1CCC(=O)N1 [compound 535],0.095
23,COc1nc(-c2cccc(-c3cccc(-c4cnc(CN[C@H]5C[C@@H](OC(F)F)C5)c(OC)n4)c3Cl)c2Cl)cnc1CNC[C@@H]1CCC(=O)N1 [compound 536],0.276
24,COc1nc(-c2cccc(-c3cccc(-c4cnc(CN5CCC6(CCC(=O)N6)C5)c(OC)n4)c3Cl)c2Cl)cnc1CN1CCC2(CCC(=O)N2)C1 (stereo not shown) [compound 537],0.064
25,COc1nc(-c2cccc(-c3cccc(-c4cnc(CNCC[C@@H]5CNC(=O)C5)c(OC)n4)c3Cl)c2Cl)cnc1CNCC[C@@H]1CNC(=O)C1 [compound 538],0.199
26,COc1nc(-c2cccc(-c3cccc(-c4cnc(CNC[C@@H]5CCC(=O)N5)c(OC)n4)c3Cl)c2Cl)cnc1CNCC[C@@H]1CNC(=O)C1 [compound 539],0.171
27,COc1nc(-c2cccc(-c3cccc(-c4cnc(CNCC[C@H]5CNC(=O)C5)c(OC)n4)c3Cl)c2Cl)cnc1CNCC[C@H]1CNC(=O)C1 [compound 540],0.072
28,COc1nc(-c2cccc(-c3cccc(-c4cnc(CNC[C@@H]5CCC(=O)N5)c(OC)n4)c3Cl)c2Cl)cnc1CNCC[C@H]1CNC(=O)C1 [compound 541],0.094

row,Compound,IC50 [nM]
1,COc1nc(-c2cccc(-c3cccc(-c4cnc(CN5CCC[C@@H]6C(=O)NC[C@@H]65)c(OC)n4)c3Cl)c2Cl)cnc1CNC[C@@H]1CCC(=O)N1 [compound 542],0.392
2,COc1nc(-c2cccc(-c3cccc(-c4cnc(CNC[C@@H]5CCC(=O)N5)c(OC)n4)c3Cl)c2Cl)cnc1CNCC1CCN(C)C1=O (stereo partly shown) [compound 543],0.2
3,COc1nc(-c2cccc(-c3cccc(-c4cnc(CNCC56CC(O)(C5)C6)c(OC)n4)c3Cl)c2Cl)cnc1CNCC12CC(O)(C1)C2 [compound 544],0.238
4,COc1nc(-c2cccc(-c3cccc(-c4cnc(CNCC56CC(O)(C5)C6)c(OC)n4)c3Cl)c2Cl)cnc1CNC[C@@H]1CCC(=O)N1 [compound 545],0.214
5,COc1nc(-c2cccc(-c3cccc(-c4cnc(CNCC5CN(S(C)(=O)=O)C5)c(OC)n4)c3Cl)c2Cl)cnc1CNCC1CN(S(C)(=O)=O)C1 [compound 546],0.089
6,COc1nc(-c2cccc(-c3cccc(-c4cnc(CNC[C@@H]5CCC(=O)N5)c(OC)n4)c3Cl)c2Cl)cnc1CNCC1CN(S(C)(=O)=O)C1 [compound 547],0.064
7,COc1nc(-c2cccc(-c3cccc(-c4cnc(CN5CC(O)(C6CC6)C5)c(OC)n4)c3Cl)c2Cl)cnc1CN1CC(O)(C2CC2)C1 [compound 548],0.665
8,COc1nc(-c2cccc(-c3cccc(-c4cnc(CN5CC(O)(C6CC6)C5)c(OC)n4)c3Cl)c2Cl)cnc1CNC[C@@H]1CCC(=O)N1 [compound 549],0.194
9,C#CC1(O)CN(Cc2ncc(-c3cccc(-c4cccc(-c5cnc(CN6CC(O)(C#C)C6)c(OC)n5)c4Cl)c3Cl)nc2OC)C1 [compound 550],0.593
10,C#CC1(O)CN(Cc2ncc(-c3cccc(-c4cccc(-c5cnc(CNC[C@@H]6CCC(=O)N6)c(OC)n5)c4Cl)c3Cl)nc2OC)C1 [compound 551],0.464
11,COc1nc(-c2cccc(-c3cccc(-c4cnc(CN5CC[C@@H](C(=O)O)C5)c(OC)n4)c3Cl)c2Cl)cnc1CNC[C@@H]1CCC(=O)N1 [compound 552],0.144
12,COc1nc(-c2cccc(-c3cccc(-c4cnc(CN[C@@](C)(CO)C(=O)O)c(OC)n4)c3Cl)c2Cl)cnc1CNC[C@@H]1CCC(=O)N1 [compound 553],0.118
13,CNC(=O)NC1CN(Cc2ncc(-c3cccc(-c4cccc(-c5cnc(CN6CC(NC(=O)NC)C6)c(OC)n5)c4Cl)c3Cl)nc2OC)C1 [compound 554],0.099
14,CNC(=O)C1CN(Cc2ncc(-c3cccc(-c4cccc(-c5cnc(CN6CC(C(=O)NC)C6)c(OC)n5)c4Cl)c3Cl)nc2OC)C1 [compound 555],0.345
15,COc1nc(-c2cccc(-c3cccc(-c4cnc(CN5CC(NS(C)(=O)=O)C5)c(OC)n4)c3Cl)c2Cl)cnc1CN1CC(NS(C)(=O)=O)C1 [compound 556],0.176
16,CNC(=O)NC1CN(Cc2ncc(-c3cccc(-c4cccc(-c5cnc(CNC[C@@H]6CCC(=O)N6)c(OC)n5)c4Cl)c3Cl)nc2OC)C1 [compound 557],0.09
17,CNC(=O)C1CN(Cc2ncc(-c3cccc(-c4cccc(-c5cnc(CNC[C@@H]6CCC(=O)N6)c(OC)n5)c4Cl)c3Cl)nc2OC)C1 [compound 558],0.064
18,COc1nc(-c2cccc(-c3cccc(-c4cnc(CN5CC(NS(C)(=O)=O)C5)c(OC)n4)c3Cl)c2Cl)cnc1CNC[C@@H]1CCC(=O)N1 [compound 559],0.12
19,COc1nc(-c2cccc(-c3cccc(-c4cnc(CNC5CS(=O)(=O)C5)c(OC)n4)c3Cl)c2Cl)cnc1CNC[C@@H]1CCC(=O)N1 [compound 560],0.144
20,COc1nc(-c2cccc(-c3cccc(-c4cnc(CN[C@H]5C[C@](C)(O)C5)c(OC)n4)c3Cl)c2Cl)cnc1CN[C@H]1C[C@](C)(O)C1 [compound 561],0.164
21,COc1nc(-c2cccc(-c3cccc(-c4cnc(CNC[C@H]5C[C@@](C)(O)C5)c(OC)n4)c3Cl)c2Cl)cnc1CNC[C@H]1C[C@@](C)(O)C1 [compound 562],0.151
22,COc1nc(-c2cccc(-c3cccc(-c4cnc(CNC[C@H]5C[C@](C)(O)C5)c(OC)n4)c3Cl)c2Cl)cnc1CNC[C@H]1C[C@](C)(O)C1 [compound 563],0.431
23,COc1nc(-c2cccc(-c3cccc(-c4cnc(CN[C@H]5C[C@](C)(O)C5)c(OC)n4)c3Cl)c2Cl)cnc1CNC[C@@H]1CCC(=O)N1 [compound 564],0.2
24,COc1nc(-c2cccc(-c3cccc(-c4cnc(CNC[C@H]5C[C@H](OC)C5)c(OC)n4)c3Cl)c2Cl)cnc1CNC[C@@H]1CCC(=O)N1 [compound 565],0.43
25,COc1nc(-c2cccc(-c3cccc(-c4cnc(CNC[C@H]5C[C@@](C)(O)C5)c(OC)n4)c3Cl)c2Cl)cnc1CNC[C@@H]1CCC(=O)N1 [compound 566],0.13
26,COc1nc(-c2cccc(-c3cccc(-c4cnc(CNC[C@H]5C[C@](C)(O)C5)c(OC)n4)c3Cl)c2Cl)cnc1CNC[C@@H]1CCC(=O)N1 [compound 567],0.064
27,COc1nc(-c2cccc(-c3cccc(-c4cnc(CNC[C@H]5CCS(=O)(=O)N5)c(OC)n4)c3Cl)c2Cl)cnc1CNC[C@H]1CCS(=O)(=O)N1 [compound 568],0.293
